From US5428048A, “Aryl-N-hydroxyureas as inhibitors of 5-lipoxygenase and anto-arteriosclerotic agents” (American Home Products Corporation, priority 1993, dated 1995)

Tests used:
5-Lipoxygenase = biological target: T1, 5-Lipoxygenase (Homo sapiens, UniProt P09917); experiment: Inhibition of 5-Lipoxygenase in Human Whole Blood (ionophore A23187-stimulated LTB4); assay type: cell-based
T1 construct: endogenous in cells; host or cells: whole blood of male human donors (results per 10^6 neutrophils)
T1 sequence (P09917 1-674): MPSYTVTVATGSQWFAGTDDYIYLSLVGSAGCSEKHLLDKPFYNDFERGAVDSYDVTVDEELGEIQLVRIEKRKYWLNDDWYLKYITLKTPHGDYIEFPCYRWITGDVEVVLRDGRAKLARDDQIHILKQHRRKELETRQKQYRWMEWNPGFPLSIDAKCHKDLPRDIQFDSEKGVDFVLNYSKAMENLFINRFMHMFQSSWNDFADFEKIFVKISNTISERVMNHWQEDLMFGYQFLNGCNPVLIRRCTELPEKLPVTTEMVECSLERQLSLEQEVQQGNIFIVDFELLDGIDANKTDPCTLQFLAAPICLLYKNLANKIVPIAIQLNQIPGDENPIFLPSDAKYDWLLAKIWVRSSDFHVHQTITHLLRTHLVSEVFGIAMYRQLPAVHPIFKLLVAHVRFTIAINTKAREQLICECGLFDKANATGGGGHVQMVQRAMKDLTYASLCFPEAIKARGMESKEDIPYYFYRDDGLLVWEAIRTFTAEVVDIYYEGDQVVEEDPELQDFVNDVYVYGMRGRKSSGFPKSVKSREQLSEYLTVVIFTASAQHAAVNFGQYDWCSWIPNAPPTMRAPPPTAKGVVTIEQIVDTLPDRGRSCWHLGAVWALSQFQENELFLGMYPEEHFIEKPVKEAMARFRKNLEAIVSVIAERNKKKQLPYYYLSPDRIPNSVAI
Method: 1. Inhibition of 5-Lipoxygenase in Human Whole Blood
Blood is obtained in 50-100 ml quantities from male donors. White blood cell counts and differentials are made. Two ml of blood are placed in a 15 ml polypropylene test tube. Test compounds are solubilized in dimethylsulfoxide and diluted in 1:10 in 10% bovine serum albumin in phosphate buffered saline, pH 7.4 resulting in a final dimethylsulfoxide concentration of 0.1% in the blood. Then, solutions of test compounds are added to the blood in a shaking water bath at 37° C. for 10 minutes prior to the addition of 30 μM calcium ionophore (A23187, Sigma). After ionophore administration, whole blood samples are mixed and incubated for 20 minutes at 37° C. in a shaking water bath. Incubation is terminated by placing samples in an ice bath and immediately adding ethylene glycol-bis-(β-aminoethyl ether)-N, N,N',N'-tetraacetic acid (10 mM). Samples are mixed and centrifuged at 1200×g for 15 minutes at […]. Preparation of samples for evaluation by RIA or ELISA is carded out by the following protocol. Plasma is removed from sample tubes, placed in 15 ml polypropylene test tubes containing 8 ml methanol, and then vortexed to precipitate protein. Samples are stored at -70° C. overnight. The next day, samples are centrifuged at 200×g for 15 minutes at 4° C. to pellet the precipitate. Samples are dried in a Savant SpeedVac Concentrator, Model SVC 200H, reconstituted to original volume with ice cold RIA or ELISA buffer, and stored at -70° C. until assayed. The assay for eicosanoids (LTB4, TxB2, and PGE2) is performed as described by the manufacturer of the [^3 H]-RIA kit or ELISA kit (LTB4 -Amersham, TxB2 and PGE2 - Caymen Chemical).
The total eicosanoid level in 2 ml of blood is calculated and reported as ng/10^6 neutrophils. Significance is determined by a one-way analysis of variance with least significant difference (LSD) comparisons to control (p≤0.05) and IC50 's (μM) are determined by regression analysis (Finney, 1978). Drug effects are expressed as percent change from control values.

LTB4 Synthesis = experiment: Reverse Passive Arthus Reaction (pleurisy, LTB4 in pleural exudate); assay type: in vivo, male Lewis rats
Method: 3. Reverse Passive Arthus Reaction
A reverse passive Arthus reaction is induced in the pleural cavity of male Lewis rats (150°-200 g; fasted overnight prior to use) by the intravenous administration of bovine serum albumin (BSA; 4 mg/0.2 ml) followed 30 minutes later by the injection of rabbit anti-BSA (1 mg/0.2 ml; lyophilized IgG fraction; Organon Teknika, West Chester, Pa.) into the right pleural space under halothane anesthesia. Drugs or vehicle (0.5% Tween-80) control are administered orally in a volume of 1 ml/100 g body weight at 1 hour prior to the anti-BSA. Animals are sacrificed at either the time of peak eicosanoid production (i.e. 5 minutes after anti-BSA for immunoreactive TxB2, 10 minutes for immunoreactive LTB4, 20 minutes for immunoreactive LTC4) or at the time of peak neutrophil infiltration (4 hours after anti-BSA) by CO2 inhalation. The pleural cavity is then exposed, the fluid exudate removed by gentle vacuum aspiration and the volume of exudate is recorded. For the determination of cellular infiltration, the pleural cavity is rinsed with 3 ml of 0.1% EDTA in sterile saline, and the recovered wash is pooled with the exudate. Cell number is determined on a model ZBI Coulter counter. For determination of eicosanoid production, undiluted pleural exudate is microfuged and the supernatant is extracted with ethanol (8-10 times volume). Extracts are either stored at -20° C., or are evaporated to dryness under a stream of N2 and reconstituted in radioimmunoassay (RIA) buffer.
Eicosanoids are quantitated by RIA according to the procedure specified by the RIA kit manufacturer (Advanced Magnetics, Cambridge, MA). Briefly, 100 μl of ^3 H-labeled eicosanoid and 100 μl of specific antibody ,are sequentially added to 100 μl of extracted pleural exudate in BGG-phosphate buffer which contains 0.01M phosphate, 0.1% bovine gamma globulin and 0.1% sodium azide at pH 7.0. Antibody-bound eicosanoid is separated from unbound eicosanoid by the addition of 750 μl of dextran (0.4%)-coated charcoal (Norit A) containing 0.1% sodium azide. The mixture is centrifuged at 2000 RPM at 5° C. for 15 minutes to pellet the charcoal and adsorbed unbound eicosanoid. Antibody-bound labeled eicosanoid is quantitated by counting in a liquid scintillation counter, and is correlated to concentration by a standard curve.

| inhibition at 10 µM (5-Lipoxygenase; 10 μM) [%] | inhibition at 1 µM (5-Lipoxygenase) [%] | Compound | % Inhibition LTB4 Synthesis (LTB4 Synthesis; 10 mg/kg p.o.) [%] | % Inhibition LTB4 Synthesis (LTB4 Synthesis; 25 mg/kg p.o.) [%] |
| --- | --- | --- | --- | --- |
| 60 |  | Cc1oc(-c2ccccc2)nc1CCOc1ccc(C(C)N(O)C(N)=O)cc1 (stereo not shown) [Example 4] |  |  |
|  | 47 | Cc1oc(-c2ccc(C(F)(F)F)cc2)nc1CCOc1ccc(CN(O)C(N)=O)cc1 [Example 13, 1-Hydroxy-1-[4-[2-[5-methyl-2(4-trifluoromethyl-phenyl)-oxazol-4-yl]-ethoxy]benzyl]-urea] | 91 |  |
|  | 55 | Cc1oc(-c2ccccc2)nc1CCOc1ccc(CN(O)C(N)=O)cc1 [Example 1] |  | 35 |
|  | 70 | NC(=O)N(O)Cc1ccc(OCCc2noc(-c3ccccc3)n2)cc1 [Example 21, 1-hydroxy-1-[4-[2-(5-phenyl-[1,2,4]-oxadiazol-3-yl)-ethoxy]-benzyl]-urea] |  | 19 |
